The nature of data set [1]: Therapeutic index (IC50/EC50). The format is cell-based. Conditions: human, H9 cells; read-out: Therapeutic index; call rule not given here.
Data set [2] relates to H9. Kind of data set: Cytotoxicity against H9 cell line. The format is functional, cell-based. Conditions: Homo sapiens.
In data set [3] the test system is H9. Kind of data set: Evaluation for anti-HIV activity using T cell line (H9). The format is functional, cell-based. Conditions: Homo sapiens.
Data set [4] has as its system H9. In words: The compound was evaluated for anti-HIV activity using T cell line (H9); No suppression. The format is functional, cell-based, Homo sapiens.
In data set [5] the test system is H9. In words: The compound was evaluated for anti-HIV activity using T cell line (H9). Conditions: Homo sapiens.
Data set [6] concerns H9. Kind of data set: The compound was evaluated for cytotoxicity against H9 cell line; Toxic. The format is toxicity, cell-based, Homo sapiens.
For data set [7], the system named is H9. In words: The compound was evaluated for anti-HIV activity using T cell line (H9). Conditions: Homo sapiens. The source holds these as a separate data set.

Where only a bound is given, the exact number is not on record here.

In the case of `COc1cc2c(cc1OC)[C@@H](Nc1ccc(F)cc1)[C@H]1COC(=O)[C@@H]1[C@@H]2c1cc(OC)c(OC)c(OC)c1`, in data set [1], the selectivity ratio came out at 4.4. This molecule displayed an IC50 in data set [2] of 9700 nM. For the same molecule, the EC50 in data set [3] came out at 2200 nM.

Take `Cc1cn([C@H]2C[C@H](N=[N+]=[N-])[C@@H](CO)O2)c(=O)[nH]c1=O` [ZIDOVUDINE]: it took 500000 nM to reach half-maximal inhibition in data set [2] (IC50). Moreover, a half-maximal response in data set [3] (EC50) required 9 nM.

Regarding `COc1cc([C@@H]2c3cc4c(cc3C(=O)[C@H]3COC(=O)[C@H]23)OCO4)cc(OC)c1O`, the selectivity ratio in data set [1] came to 2.1. Also, the half-maximal inhibitory concentration (IC50) in data set [2] turned out to be 1700 nM. Further, the EC50 in data set [3] was 800 nM.

In the case of `COc1cc2c(cc1OC)[C@@H](Nc1ccc(F)cc1)[C@H]1COC(=O)[C@@H]1[C@@H]2c1cc(OC)c(O)c(OC)c1`, the selectivity ratio in data set [1] is more than 166. The molecule further registered an IC50 in data set [2] of 166 nM. The molecule further had an EC50 in data set [3] of less than 1 nM.

Take `COc1cc([C@@H]2c3cc4c(cc3[C@@H](O)[C@H]3COC(=O)[C@H]23)OCO4)cc(OC)c1O` [4'-DEMETHYLEPIPODOPHYLLOTOXIN]: in data set [2], half-maximal inhibition (IC50) was put at 70 nM. Moreover, in data set [4], the EC50 result is “Not Active”.

In the case of `COc1cc([C@@H]2c3cc4c(cc3[C@@H](Sc3ccc(O)cc3)[C@H]3COC(=O)[C@H]23)OCO4)cc(OC)c1O`, the selectivity ratio in data set [1] was found to be 2.1. This molecule also yielded an IC50 in data set [2] of 1700 nM. In addition, in data set [3], it took 800 nM to reach a half-maximal effect (EC50).

As to `COc1cc([C@@H]2c3cc4c(cc3[C@@H](O)[C@H]3COC(=O)[C@H]23)OCO4)cc(N)c1N`, in data set [1], the selectivity ratio came out at 3.9. The molecule also registered an IC50 in data set [2] of 6600 nM. In data set [3], this molecule yielded an EC50 of 1700 nM.

On to `COc1cc([C@@H]2c3cc4c(cc3[C@@H](Nc3ccc(F)cc3)[C@H]3COC(=O)[C@H]23)OCO4)cc(OC)c1O`, for which the selectivity ratio in data set [1] came out at 10. In data set [2], this molecule returned an IC50 of 1000 nM. Besides, the concentration giving a half-maximal response (EC50) in data set [3] came to 100 nM.

Consider `COc1cc([C@@H]2c3cc4c(cc3[C@@H](Oc3ccc(F)cc3)[C@H]3COC(=O)[C@H]23)OCO4)cc(OC)c1O`, for which the selectivity ratio in data set [1] turned out to be 1.8. Besides, inhibition in data set [2] was half-maximal at 800 nM (IC50). Also, the midpoint of the response in data set [3], the EC50, lay at 450 nM.

For `COc1cc([C@@H]2c3cc4c(cc3[C@@H](Nc3ccc([N+](=O)[O-])cc3)[C@H]3COC(=O)[C@H]23)OCO4)cc(OC)c1O`, in data set [1], the selectivity ratio came out at 55.8. The same molecule registered an IC50 in data set [2] of 70 nM. This molecule returned a half-maximal effective concentration (EC50) in data set [3] of less than 1.28 nM.

Turning to `COc1cc([C@@H]2c3cc4c(cc3[C@@H](Nc3ccc(F)cc3)[C@H]3COC[C@H]23)OCO4)cc(OC)c1O`, the selectivity ratio in data set [1] came out at 12.5. In addition, inhibition in data set [2] was half-maximal at 1500 nM (IC50). A half-maximal response in data set [3] (EC50) required 120 nM.

Regarding `COc1cc([C@@H]2c3cc4c(cc3C(=O)[C@H]3COC(=O)[C@H]23)OCO4)cc(O)c1O`, the selectivity ratio in data set [1] was found to be 3. The molecule also showed an EC50 in data set [5] of 3000 nM. For the same molecule, in data set [2], the IC50 was found to be 9000 nM.

`COc1cc([C@@H]2c3cc(O)c(O)cc3[C@H](O)[C@H]3COC(=O)[C@H]23)cc(OC)c1O` registered an IC50 in data set [2] of 1850 nM. In data set [4], the EC50 result is “Not Active”.

Take `COc1cc([C@@H]2c3cc4c(cc3[C@H](O)[C@H]3COC(=O)[C@H]23)OCO4)cc(OC)c1OC` [PODOFILOX]: the IC50 result in data set [6] is on record as “Toxic”.

On to `COc1cc([C@@H]2c3cc(O)c(O)cc3[C@@H](Nc3ccc(F)cc3)[C@H]3COC(=O)[C@H]23)cc(OC)c1O`, for which the selectivity ratio in data set [1] was 4.1. In data set [2], this molecule had an IC50 of 29000 nM. In addition, in data set [3], the EC50 came to 7000 nM.

For `CCN(CC)CCN[C@@H]1c2cc3c(cc2[C@@H](c2cc(OC)c(O)c(OC)c2)[C@H]2C(=O)OC[C@@H]21)OCO3`, the selectivity ratio in data set [1] came to 0.8. Also, in data set [2], the IC50 came out at 8000 nM. The molecule also returned an EC50 in data set [3] of 10000 nM.

With `COc1cc2c(cc1OC)[C@@H](Nc1ccc([N+](=O)[O-])cc1)[C@H]1COC(=O)[C@@H]1[C@@H]2c1cc(OC)c(O)c(OC)c1`, the selectivity ratio in data set [1] is more than 158. Further, in data set [2], the half-inhibitory concentration (IC50) turned out to be 158 nM. Also, in data set [7], the EC50 is less than 1 nM.

As to `CCS[C@@H]1c2cc3c(cc2[C@@H](c2cc(OC)c(OC)c(OC)c2)[C@H]2C(=O)OC[C@@H]21)OCO3`, the selectivity ratio in data set [1] worked out at 2. For the same molecule, the IC50 in data set [2] came out at 320 nM. For the same molecule, the EC50 in data set [3] was 160 nM.

In data set [2], `CCS[C@@H]1c2cc3c(cc2[C@@H](c2cc(OC)c(O)c(OC)c2)[C@H]2C(=O)OC[C@@H]21)OCO3` registered an IC50 of 1900 nM. For the same molecule, the EC50 entry in data set [4] is given as “Not Active”.

Take `COc1cc([C@@H]2c3cc4c(cc3[C@@H](Nc3ccc(F)cc3)[C@H]3COC(O)[C@H]23)OCO4)cc(OC)c1O` (some centres not stated): in data set [1], the selectivity ratio was found to be 4. Also, the IC50 in data set [2] was 1800 nM. In data set [3], it took 450 nM to reach a half-maximal effect (EC50).

For the molecule `CCN(CC)[C@@H]1c2cc3c(cc2[C@@H](c2cc(OC)c(O)c(OC)c2)[C@H]2C(=O)OC[C@@H]21)OCO3.Cl`, the IC50 in data set [2] is more than 100000 nM. Moreover, the EC50 entry in data set [4] was “No supperssion”.

As for `COc1cc([C@@H]2c3cc(O)c(O)cc3[C@@H](O)[C@H]3COC(=O)[C@H]23)cc(OC)c1O`, the IC50 in data set [2] was 45000 nM. Further, the EC50 result in data set [4] was “Not Active”.

`CCOC(=O)c1ccc(N[C@@H]2c3cc(OC)c(OC)cc3[C@@H](c3cc(OC)c(O)c(OC)c3)[C@H]3C(=O)OC[C@@H]32)cc1`: the selectivity ratio in data set [1] is more than 120. Moreover, the IC50 in data set [2] is 120 nM. This molecule returned an EC50 in data set [3] of less than 1 nM.

As for `COc1cc([C@@H]2c3cc4c(cc3[C@@H](Nc3ccc(F)cc3)[C@H]3COC(=O)[C@H]23)OCO4)cc(OC)c1OC`, the selectivity ratio in data set [1] amounted to 3.3. In data set [2], half-maximal inhibition (IC50) was put at 1500 nM. This molecule also returned an EC50 in data set [3] of 450 nM.

For `COc1cc2c(cc1OC)[C@@H](Nc1ccc(C#N)cc1)[C@H]1COC(=O)[C@@H]1[C@@H]2c1cc(OC)c(O)c(OC)c1`, in data set [1], the selectivity ratio is more than 141. In data set [2], this molecule gave an IC50 of 141 nM. In addition, the EC50 in data set [3] was less than 1 nM.

The values are drawn from ChEMBL document CHEMBL1129222, “Anti-AIDS agents. 291. Anti-HIV activity of modified podophyllotoxin derivatives” (Bioorg Med Chem Lett, 1997).
